Source: US9133158B2, “Bicyclic dihydroisoquinoline-1-one derivatives” (Hoffmann-La Roche Inc., priority 2011, dated 2015)

Columns and labels:
[1] = target: T1, human CYP11B2 (Homo sapiens, UniProt P19099); assay: G-402 cellular enzyme assay, human CYP11B2 (aldosterone release, HTRF); assay type: cell-based; conditions: G-402 cells, 1 μM Deoxycorticosterone
T1 construct: expressed in transfected cells
T1 sequence (P19099 25-503): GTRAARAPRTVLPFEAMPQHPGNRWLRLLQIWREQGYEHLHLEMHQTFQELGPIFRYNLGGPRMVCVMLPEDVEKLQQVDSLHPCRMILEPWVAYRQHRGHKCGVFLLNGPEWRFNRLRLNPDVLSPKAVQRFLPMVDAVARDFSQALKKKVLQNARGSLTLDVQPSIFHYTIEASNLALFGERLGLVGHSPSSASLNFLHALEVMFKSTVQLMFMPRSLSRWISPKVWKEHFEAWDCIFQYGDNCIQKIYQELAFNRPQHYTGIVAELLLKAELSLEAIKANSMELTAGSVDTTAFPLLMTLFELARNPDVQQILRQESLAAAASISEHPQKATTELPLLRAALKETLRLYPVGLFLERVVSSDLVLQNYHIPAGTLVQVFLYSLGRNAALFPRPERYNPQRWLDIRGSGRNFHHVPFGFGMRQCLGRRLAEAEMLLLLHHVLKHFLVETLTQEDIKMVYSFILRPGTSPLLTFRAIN
Method in brief: (§1)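 Supernatant steroid product measured by HTRF (aldosterone for CYP11B2, cortisol for CYP11B1) after 16 h exposure of stably transfected G-402 cells to compound. Substrates were 1 μM deoxycorticosterone and 1 μM deoxycortisol, respectively; EC50 derived from a four-parameter MMF curve fit.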

[2] = target: T2, human CYP11B1 (Homo sapiens, UniProt P15538); assay: G-402 cellular enzyme assay, human CYP11B1 (cortisol release, HTRF); assay type: cell-based; conditions: G-402 cells, 1 μM Deoxycortisol
T2 construct: expressed in transfected cells
T2 sequence (P15538 25-503): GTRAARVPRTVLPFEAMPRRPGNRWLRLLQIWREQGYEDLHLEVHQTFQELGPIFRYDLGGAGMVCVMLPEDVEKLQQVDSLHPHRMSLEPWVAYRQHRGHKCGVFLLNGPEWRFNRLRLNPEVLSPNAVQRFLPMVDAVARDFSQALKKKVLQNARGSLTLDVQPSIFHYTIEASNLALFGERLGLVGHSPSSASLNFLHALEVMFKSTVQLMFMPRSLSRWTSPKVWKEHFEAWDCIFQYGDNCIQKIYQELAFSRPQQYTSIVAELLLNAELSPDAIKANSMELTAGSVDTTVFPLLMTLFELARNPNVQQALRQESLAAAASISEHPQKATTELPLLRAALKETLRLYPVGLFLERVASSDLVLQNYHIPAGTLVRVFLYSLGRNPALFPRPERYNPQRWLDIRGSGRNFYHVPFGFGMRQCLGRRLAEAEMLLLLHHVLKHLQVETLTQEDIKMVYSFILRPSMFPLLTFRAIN
Method in brief: as §1

SMILES | EC50 [1] [nM] | EC50 [2] [nM]
CS(=O)(=O)c1ccc(Cc2cncc(N3CCc4cc(Cl)ccc4C3=O)c2)cc1 [Example 205, 6-Chloro-2-[5-(4-methanesulfonyl-benzyl)-pyridin-3-yl]-3,4-dihydro-2H-isoquinolin-1-one] | 0.5 | 0.6
O=C1c2ccc(Cl)cc2CCN1c1cncc(NS(=O)(=O)C2CC2)c1 [Example 221, Cyclopropanesulfonic acid [5-(6-chloro-1-oxo-3,4-dihydro-1H-isoquinolin-2-yl)-pyridin-3-yl]-amide] | 2160 | 10100
CC1(C)c2cc(F)ccc2C(=O)N1c1cncc(CNS(C)(=O)=O)c1 [Example 403, N-[5-(6-Fluoro-1,1-dimethyl-3-oxo-1,3-dihydro-isoindol-2-yl)-pyridin-3-ylmethyl]-methane-sulfonamide] | 31.7 | 1930
CCC(=O)N[C@H]1CCCc2c1cncc2N1C(=O)c2ccc(Cl)cc2[C@H]1C (single isomer, unassigned) [Example 360, N-[(S or R)-4-((R or S)-5-Chloro-3-methyl-1-oxo-1,3-dihydro-isoindol-2-yl)-5,6,7,8-tetrahydro-isoquinolin-8-yl]-propionamide] | 853 | 16100
O=C1c2ccc(Cl)cc2CN1c1cccnc1 [Example 108, 5-Chloro-2-pyridin-3-yl-2,3-dihydro-isoindol-1-one] | 163 | 9780
O=C1c2ccc(Cl)cc2CCN1c1cncc(Cn2ccnc2CO)c1 [Example 163, 6-Chloro-2-[5-(2-hydroxymethyl-imidazol-1-ylmethyl)-pyridin-3-yl]-3,4-dihydro-2H-isoquinolin-1-one] | 215 | 3360
CCC1c2cc(Cl)ccc2C(=O)N1c1cncc(-c2ccnn2C)c1 (single isomer, unassigned) [Example 428, (R or S)-5-Chloro-3-ethyl-2-[5-(2-methyl-2H-pyrazol-3-yl)-pyridin-3-yl]-2,3-dihydro-isoindol-1-one] | 20 | 105
O=C1CCCN1c1cncc(N2CCc3cc(Cl)ccc3C2=O)c1 [Example 26, 6-Chloro-2-[5-(2-oxo-pyrrolidin-1-yl)-pyridin-3-yl]-3,4-dihydro-2H-isoquinolin-1-one] | 321 | 8150
Cc1ccn(Cc2cncc(N3CCc4cc(Cl)ccc4C3=O)c2)n1 [Example 190, 6-Chloro-2-[5-(3-methyl-pyrazol-1-ylmethyl)-pyridin-3-yl]-3,4-dihydro-2H-isoquinolin-1-one] | 328 | 7320
CSc1cncc(N2CCc3cc(Cl)ccc3C2=O)c1 [Example 59, 6-Chloro-2-(5-methylsulfanyl-pyridin-3-yl)-3,4-dihydro-2H-isoquinolin-1-one] | 8.1 | 135
O=C1c2ccc(Cl)cc2CN1c1cncc(N2CC[C@@H](O)C2)c1 [Example 138, 5-Chloro-2-[5-((R)-3-hydroxy-pyrrolidin-1-yl)-pyridin-3-yl]-2,3-dihydro-isoindol-1-one] | 16.2 | 193
CC(OCc1cncc(N2CCc3cc(Cl)ccc3C2=O)c1)C(F)(F)F (stereo not shown) [Example 195, 6-Chloro-2-[5-(2,2,2-trifluoro-1-methyl-ethoxymethyl)-pyridin-3-yl]-3,4-dihydro-2H-isoquinolin-1-one] | 37.3 | 486
CC[C@@H]1c2cc(Cl)ccc2C(=O)N1c1cncc2c1CC[C@H]2NS(C)(=O)=O (single isomer, unassigned) [Example 369, N-[(R or S)-4-((R or S)-5-Chloro-3-ethyl-1-oxo-1,3-dihydro-isoindol-2-yl)-6,7-dihydro-5H-[2]pyrindin-7-yl]-methanesulfonamide] | 40.3 | 12400
O=C1c2ccc(Cl)c(Cl)c2CCN1c1cccnc1 [Example 95, 5,6-Dichloro-2-pyridin-3-yl-3,4-dihydro-2H-isoquinolin-1-one] | 327 | 10300
O=C1c2ccc(Cl)cc2CCN1c1cncc(F)c1 [Example 5, 6-Chloro-2-(5-fluoro-pyridin-3-yl)-3,4-dihydro-2H-isoquinolin-1-one] | 92.5 | 4270
CC(C)OCc1ccncc1N1CCc2cc(Cl)ccc2C1=O [Example 77, 6-Chloro-2-(4-isopropoxy-methyl-pyridin-3-yl)-3,4-dihydro-2H-isoquinolin-1-one] | 665 | 12800
CCC(=O)N[C@H]1CCc2c1cncc2N1C(=O)c2ccc(Cl)cc2[C@H]1C (single isomer, unassigned) [Example 377, N-[(S or R)-4-((R or S)-5-Chloro-3-methyl-1-oxo-1,3-dihydro-isoindol-2-yl)-6,7-dihydro-5H-[2]pyrindin-7-yl]-propionamide] | 3.4 | 448
O=C1c2ccc(Cl)cc2CCN1c1cncc(C(O)c2ccc(F)c(F)c2)c1 (stereo not shown) [Example 31, 6-Chloro-2-{5-[(3,4-difluoro-phenyl)-hydroxy-methyl]-pyridin-3-yl}-3,4-dihydro-2H-isoquinolin-1-one] | 50.2 | 328
CCS(=O)(=O)N(C)Cc1cncc(N2C(=O)c3ccc(Cl)cc3C2(C)C)c1 [Example 395, Ethanesulfonic acid [5-(6-chloro-1,1-dimethyl-3-oxo-1,3-dihydro-isoindol-2-yl)-pyridin-3-ylmethyl]-methyl-amide] | 8 | 679
CC(C)c1nccn1Cc1cncc(N2Cc3cc(Cl)ccc3C2=O)c1 [Example 109, 5-Chloro-2-[5-(2-isopropyl-imidazol-1-ylmethyl)-pyridin-3-yl]-2,3-dihydro-isoindol-1-one] | 229 | 1350
COc1cncc(N2CCc3nc(OC)ccc3C2=O)c1 [Example 97, 2-Methoxy-6-(5-methoxy-pyridin-3-yl)-7,8-dihydro-6H-[1,6]naphthyridin-5-one] | 16.9 | 220
CC(C)C(=O)Nc1cncc(N2CCc3cc(Cl)ccc3C2=O)c1 [Example 247, N-[5-(6-Chloro-1-oxo-3,4-dihydro-1H-isoquinolin-2-yl)-pyridin-3-yl]-isobutyramide] | 4580 | 7470
O=C1c2ccc(Cl)cc2CCN1c1cncc2c([N+](=O)[O-])cccc12 [Example 287, 6-Chloro-8′-nitro-3,4-dihydro-[2,4′]biisoquinolinyl-1-one] | 555 | 6410
CC(C)S(=O)(=O)NCc1cncc(N2CCc3cc(Cl)ccc3C2=O)c1 [Example 145, Propane-2-sulfonic acid [5-(6-chloro-1-oxo-3,4-dihydro-1H-isoquinolin-2-yl)-pyridin-3-ylmethyl]-amide] | 1500 | 1900
CC1(C)c2cc(Cl)ccc2C(=O)N1c1cncc(OC2CN(S(C)(=O)=O)C2)c1 [Example 452, 5-Chloro-2-[5-(1-methanesulfonyl-azetidin-3-yloxy)-pyridin-3-yl]-3,3-dimethyl-2,3-dihydro-isoindol-1-one] | 26.8 | 1740
COCc1cncc(N2CCc3cc(Cl)ccc3C2=O)c1 [Example 193, 6-Chloro-2-(5-methoxymethyl-pyridin-3-yl)-3,4-dihydro-2H-isoquinolin-1-one] | 20.1 | 217
CC1(C)c2cc(Cl)ccc2C(=O)N1c1cncc(CNC(=O)c2ccccn2)c1 [Example 434, Pyridine-2-carboxylic acid [5-(6-chloro-1,1-dimethyl-3-oxo-1,3-dihydro-isoindol-2-yl)-pyridin-3-ylmethyl]-amide] | 6.6 | 228
Cn1cncc1C(=O)NCc1cncc(N2C(=O)c3ccc(Cl)cc3C2(C)C)c1 [Example 435, 3-Methyl-3H-imidazole-4-carboxylic acid [5-(6-chloro-1,1-dimethyl-3-oxo-1,3-dihydro-isoindol-2-yl)-pyridin-3-ylmethyl]-amide] | 8.8 | 256
O=C1c2ccc(Cl)cc2CCN1c1cncc(COCC2CCCO2)c1 (stereo not shown) [Example 201, 6-Chloro-2-[5-(tetrahydro-furan-2-ylmethoxymethyl)-pyridin-3-yl]-3,4-dihydro-2H-isoquinolin-1-one] | 30.4 | 293
